Literature values, collected in patent US20140328795A1, “VIRUCIDAL SMALL MOLECULE AND USES THEREOF” (The Texas A&M University System, priority 2012, published 2014).

Test system: HIV
Settings: VOICE trial among African women; cited from earlier work

## C[C@H](Cn1cnc2c(N)ncnc21)OCP(=O)(O)O [tenofovir]
  protection against HIV: failed to provide protection against HIV
